Measurements reported in US20040266748A1, “Photosensitizing carbamate derivatives” (priority 2001, published 2004).

Tests used:
[1] = test system: subcutaneous chondrosarcoma tumors; assay: Chondrosarcoma tumor growth delay after PDT; type: in vivo, Sprague-Dawley rats; settings: rats; drug dose 2.0 μmol/kg; light dose 125 J/cm2; optimal conditions, 24 hrs post drug administration
Experimental: The carbamate compounds were formulated in egg yolk phosphatidyl choline (EYP) and phosphate buffered saline (PBS) (pH 7.4). These were sterilized by filtration through a 0.2-micron nylon filter and determined to be stable for at least several weeks following formulation by HPLC. Five Sprague-Dawley rats with subcutaneous chondrosarcoma tumors in the flank of a certain volume (150-250 mm^3) were injected intravenously with various drugs at various doses. Three hours after the injection the tumors were exposed to 664-nm light at light doses of 125 J/cm^2 or 200 J/cm^2. The end point of the study was the observation of tumor regrowth (averaged over the animals) following the treatment.
Table 2 illustrates the results for the best drug and light doses that were tested in the above system and are compared with the well known photosensitizer SnET2 under optimal conditions (24 hrs post drug administration).

[2] = test system: normal skin; assay: Normal skin clearance (skin response) of photosensitizers in irradiated hairless rats; type: in vivo; settings: drug dose 0.5 μmol/Kg, light dose 150 mW/cm^2/125 J at activation wavelength, time point post injection
Text: Ester and amide cleavage appear to be the major metabolic routes. As stated previously, one of the inventors' surprising and unexpected biological observations was that the carbamate analogs produce limited skin phototoxicity. Table 1 outlines the normal skin clearance of several carbamate photosensitizers as determined by irradiating hairless rats at the activation wavelength of the photosensitizer at 150 mW/cm2/125 J at different time points post injection. As can be clearly seen, carbamate analogs elicit skin responses at very early time points (1-6 hrs) and not past 6 hrs. […] Examples in Table (1) include compounds (26) and (Chl) and (37) and (35). In these cases the hydroxylated parent tetrapyrroles (Chl) and (35), at drug doses of 0.5 μmol/Kg, elicit maximal normal skin responses at 24 and 48 hrs, respectively. By comparison, their carbamate analogs (26) and (37), at drug doses of 1.0 μmol/Kg and 1.5 μmol/Kg, respectively, elicit maximal skin responses at 6 hrs only. Clearly, if ester metabolism of the carbamate back to the parent hydroxylated macrocycle was rapid in blood plasma one would expect skin responses similar to parent hydroxylated macrocycle. This is not the case. It is known by the present inventors and others that metabolism of the propionic acid methyl ester functionality is generally slow in rat and human blood plasma (10-20% metabolism at 24 hrs).

**Q.** With CCOC(=O)C1=Cc2c3nc(cc4nc(cc5[n-]c(cc6[n-]c2c(C)c6CC)c(C)c5CC)C(C)=C4CC)[C@@H](C)[C@]13CC.[Cl-].[Cl-].[Sn] (racemic) [SnET2, Tin Ethyletiopurpurin] as the compound, how does the “Days (regrowth)” value [1] read?
**A.** Its value is 13 days.

**Q.** “diethanolsulfonylamide zinc octaethylbenzochlorin [(35)]” was tested. Which “Skin Response” value [2] did it give?
**A.** The value was 48 h.
